According to patent publication US11931352B2, “Combination therapies for treating cancer” (UNIVERSITY OF VIRGINIA PATENT FOUNDATION, priority 2018, dated 2024):

What was measured:
[1] = relative to the methoxy compound; cited from earlier work
MYC [2] = experiment: MYC protein levels by immunoblot in ME-1 cells; type: cell-based, human; conditions: 0.1 μM and greater concentrations, 6 hrs
Procedure: Immunoblotting. ME-1 cells were lysed in modified RIPA buffer (50 mM Tris pH7.5, 150 mM NaCl, 1% NP40, 0.25% sodium deoxycholate and 1 mM EDTA) with phosphatase inhibitor (Sigma) and protease inhibitors (Millipore) for 15 min in ice followed by centrifugation. Nuclear and cytoplasmic fractions were isolated using Subcellular Protein Fractionation Kit (Thermo Fisher Scientific) according to the manufacturer's instructions. Protein concentrations were determined with the Biorad Protein Assay (Biorad). Proteins were separated on precast 8-12% Mini Protean TGX gels at 60-80 V using the Mini Protean electrophoresis system and were blotted onto PVDF membrane at 100V for 90 min in a Mini Trans-Blot Cell. All antibodies were used as recommended by the manufacturer and mentioned in Key Resource Table. Relative band intensities were quantified using ImageJ software.

RUNX1 [3] = experiment: ChIP-qPCR for RUNX1 at MYC enhancers in ME-1 cells; type: cell-based, human
Procedure: (§1) Chromatin Immunoprecipitation (ChIP). […] Cross-linking of proteins to DNA was accomplished by the addition of 1% formaldehyde for 10 min to cultured cells at room temperature. After neutralization with glycine, cells were lysed in lysis buffer with protease inhibitors and samples were sonicated to an average DNA length of 200-400 bp with a bioruptor (Diagenode). After sonication, the chromatin was immunoprecipitated with 10 μg of antibody of interest at 4° C. overnight. Antibody bound complexes were isolated with Dynabeads (Life Technologies). DNA was purified using phenol-chloroform isoamyl-alcohol method. Immunoprecipitated DNA was analyzed by sequencing (explained below) or qPCR on a StepOnePlus System (Applied Biosystems) with Power SYBR® Green PCR Master Mix and calculated as % of input.

MYC [4] = experiment: MYC transcript levels by qRT-PCR in ME-1 cells; type: cell-based, human; conditions: for MYC transcript and protein levels: single agent treatment of ME-1 cells
Procedure: (§2) Quantitative RT-PCR Analysis. mRNA was prepared with a PureLink® RNA Mini Kit (Life Technologies) and cDNA synthesis was performed with a SuperScript III kit (Life Technologies), per the manufacturers' instructions. Quantitative PCR analysis was conducted on an Applied Biosystems StepOnePlus System with Power SYBR® Green PCR Master Mix (Applied Biosystems). Expression levels were determined with the ΔCt method and normalized to ([…] and/or GAPDH. Sequences of primers are provided in the Key Resource Table.

[5] = tested on: human primary inv(16) leukemic CD34+ cells; experiment: MYC expression in human primary inv(16) AML cells; type: cell-based; conditions: 5 μM AI-10-49, 24 hrs
Text: (§3) Primary Hematopoietic Cell Cultures. Human cord blood samples were collected from the UMASS Memorial Medical Center, and CD34^+ cells were isolated using the CD34 Microbead kit (Miltenyi Biotec). The use of the cord blood samples for research purposes was approved by the Ethics Committee of the University of Massachusetts Medical School. Human AML samples were received from Martin Peter Carroll (University of Pennsylvania) and Carsten Mueller-Tidow (University of Heidelberg, Germany). Hematopoietic CD34^+ cells were isolated from human AML bone marrow samples using the CD34 Microbead kit (Miltenyi Biotec). All patients gave written consent for use of their samples. […]
as §2

[6] = tested on: wild type lineage negative mouse bone marrow cells; experiment: MYC expression in normal mouse bone marrow cells; type: cell-based; conditions: 5 μM AI-10-49, 24 hrs
Procedure: (§4) Murine bone marrow cells were isolated by crushing femur and tibia of the hind legs of mice. Wild type mouse bone marrow cells were cultured in StemSpan Serum-Free Expansion Medium (SFEM, Stemcell Technologies), 100 U/ml Penicillin and […] Streptomycin (Life Technologies) supplemented with 6 ng/ml murine recombinant IL3, 10 ng/ml murine recombinant IL6, and 50 ng/ml murine recombinant SCF. Cbfb^+/MYH11 and Nras^+/G120 leukemic bone marrow and spleen cells were cultured in StemSpan Serum-Free Expansion Medium (SFEM, Stemcell Technologies), 100 U/ml Penicillin and […] Streptomycin (Life Technologies) supplemented with 10 ng/ml murine recombinant IL3, and 50 ng/ml murine recombinant SCF.
as §2

ME-1 cells [7] = experiment: RNA-sequencing expression analysis of AI-10-49 treated ME-1 cells; type: cell-based, human; conditions: AI-10-49 1 μM, 6 hrs
Procedure: RNA Sequencing. The RNA for RNA-sequencing was prepared with a PureLink® RNA Mini Kit. RNA concentration was quantified with a NanoDrop spectrophotometer (Thermo Scientific). RNA integrity was evaluated with a 2100 Bioanalyzer with an RNA 6000 kit (Agilent Technologies). Libraries were prepared with a TruSeq RNA library preparation kit (Illumina). Libraries were quantified by qPCR, normalized and pooled before sequencing with paired-end 90-bp reads on an Illumina HiSeq2000 in triplicate.
RNA-seq data analysis. Raw reads from RNA-seq experiment were assessed for their quality using fastqc, followed by alignment to the reference human genome (hg19) using tophat v 2.0.9, bowtie2/2.1.0 (Trapnell et al., 2009) with the default setting except the following parameters: -b2-very-sensitive-mate-inner-dist 160-mate-std-dev 80-no-coverage-search-transcriptome-index=hg19_knownGene_transcriptome_data. Differential gene expression analysis was performed by cufflinks v 2.2.0 (Trapnell et al., 2012).

RUNX1 [8] = experiment: ChIP-seq for RUNX1 in ME-1 cells; type: cell-based, human; conditions: AI-10-49 1 μM, 6 hrs
Procedure: (§5) Chromatin Immunoprecipitation (ChIP). ME-1 cells were treated with DMSO or AI-10-49 (1 μM) for six hrs. Cross-linking of proteins to DNA was accomplished by the addition of 1% formaldehyde for 10 min to cultured cells at room temperature. After neutralization with glycine, cells were lysed in lysis buffer with protease inhibitors and samples were sonicated to an average DNA length of 200-400 bp with a bioruptor (Diagenode). After sonication, the chromatin was immunoprecipitated with 10 μg of antibody of interest at 4° C. overnight. Antibody bound complexes were isolated with Dynabeads (Life Technologies). DNA was purified using phenol-chloroform isoamyl-alcohol method. Immunoprecipitated DNA was analyzed by sequencing (explained below) or qPCR on a StepOnePlus System (Applied Biosystems) with Power SYBR® Green PCR Master Mix and calculated as % of input.
(§6) Chromatin immunoprecipitation followed by sequencing (ChIP-seq). DNA concentration was quantified with a NanoDrop spectrophotometer (Thermo Scientific). DNA integrity was evaluated with a 2100 Bioanalyzer (Agilent Technologies). […] Libraries were quantified by qPCR, normalized and pooled before sequencing with single-end 50-bp reads on an Illumina HiSeq4000).
(§7) ChIP-seq data analysis. ChIP-seq reads were aligned to the human genome (hg19) with Bowtie2 v 2.1.0 (Langmead and Salzberg, 2012) with the standard default settings. […]

RING1B = experiment: Time-course ChIP-qPCR for RING1B at E3 in ME-1 cells; type: cell-based, human; conditions: by 5 hr of AI-10-49 treatment
Procedure: as §1

[9] = tested on: CBFβ-SMMHC-expressing (Nras/CM) leukemia cells; experiment: Leukemia transplantation study in mice (leukemia latency); type: in vivo, mouse; conditions: i.p. from day 5; AI-10-49 200 mg/kg/day for 10 days, JQ1 50 mg/kg/day for 21 days
Procedure: Leukemia transplantation studies in mice. […] AI-10-49 was administered at 200 mg/kg/day from day 5 to day 14. […] Mice were sacrificed after visible characteristics of AML, including reduced motility and grooming activity, hunched back, and pale paws (anemia). Leukemic cells were extracted from spleen and analyzed at time of euthanasia as previously described (Kuo et al., 2006).
Statistical Analysis. Analysis was performed using R, a system for statistical computation and graphics (Ihaka and Gentleman, 1996). For mouse leukemia survival analysis, the leukemia latency and P-values were estimated using Survival package in R. P-value between groups was calculated using log-rank test. Relative cell viability, measured as the proportion of viable cells, was first arcsine-transformed to homogenize the variance. […] One-way ANOVA was performed followed by predetermined contrasts for FIGS. 2A, 2B, 2C, 2D, 2E, 4D and 7C. Two-way ANOVA was performed followed by Tukey's honest significance test for FIG. 3C. To compare the response curves (FIGS. 3A & 3D), an indicator variable was created to distinguish the two-drug treatment and one of the single-drug treatments. Two-way ANOVA was performed to compare a single-drug treatment and the two-drug treatment.

H3K27ac = experiment: ChIP-seq for H3K27ac in ME-1 cells; type: cell-based, human; conditions: AI-10-49 1 μM, 6 hrs; DMSO 31,102
Procedure: as §5, §6, §7

[10] = tested on: human cord blood CD34+ cells; experiment: MYC expression in normal human CD34+ hematopoietic cells; type: cell-based; conditions: 5 μM AI-10-49, 24 hrs
Text: as §3, §2

ME-1 cells [11] = experiment: Cell viability (MTT) dose response and synergy analysis in ME-1 cells; type: cell-based, human; conditions: ME-1 cells treated 72 hr, MTT assay
Procedure: Cell Viability Assay. Cell viability was estimated using the MTT kit, CellTiter 96® AQueous One Solution (Promega, PA). 20,000 cells/well were seeded in triplicate into 96-well plates. After 24-72 hrs, 20 μl of MTT reagent was added to wells containing cells or medium (blank), and absorption at 490 nm was measured using SpectraMax M5 plate reader (Molecular Devices).
The IC50 was estimated using the drc package in R with lower bound set to 0 (Ritz et al., 2015). CIs were calculated using the formula a/A+b/B. Synergisms, additive effect and antagonism of combine treatment assays are defined as CI<1, CI=1 and CI>1 respectively, utilizing the Chou-Talalay Method (Chou, 2010).

[12] = tested on: lineage negative mouse Cbfb+/MYH11 leukemic cells; experiment: MYC expression in mouse Cbfb+/MYH11 leukemic cells; type: cell-based; conditions: 5 μM AI-10-49, 24 hrs
Procedure: as §4, §2

CBFβ = molecular target: T1, CBFβ (Homo sapiens, UniProt Q13951); conditions: cited from earlier work
T1 sequence (Q13951 1-182): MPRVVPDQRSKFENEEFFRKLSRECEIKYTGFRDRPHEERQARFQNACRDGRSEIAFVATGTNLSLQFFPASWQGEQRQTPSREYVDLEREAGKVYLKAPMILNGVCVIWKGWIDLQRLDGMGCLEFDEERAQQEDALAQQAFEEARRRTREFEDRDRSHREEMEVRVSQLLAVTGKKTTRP

[13] = tested on: non-inv(16) AML cells (U937, K562, Jurkat, Kasumi-1 and THP-1); experiment: MYC transcript levels in non-inv(16) AML cell lines; type: cell-based; conditions: 1 μM AI-10-49, 6 hrs
Procedure: as §2

[14] = AI-10-49 versus DMSO, ME-1 cells

Compound: FC(F)(F)Oc1ccc2[nH]c(-c3ccccn3)nc2c1 [A-10-47, 2-(pyridin-2-yl)-5-(trifluoromethoxy)-1H-benzo[d]imidazole]
- metabolic stability [1]: enhanced metabolic stability

Compound: FC(F)(F)Oc1ccc2[nH]c(-c3ccc(OCCOCCOc4ccc(-c5nc6cc(OC(F)(F)F)ccc6[nH]5)nc4)cn3)nc2c1 [AI-10-49]
- MYC protein levels depleted (MYC [2]): approximately 20 fold
- RUNX1 peak increase at BDME-E3 (RUNX1 [3]; [14]): 8 fold
- RUNX1 peak increase at E5 (RUNX1 [3]; [14]): 1.8 fold
- RUNX1 peak increase at ME1 (RUNX1 [3]; [14]): 5 fold
- RUNX1 peak increase at ME2 (RUNX1 [3]; [14]): 3 fold
- RUNX1 occupancy at E3 (RUNX1 [3]; time course, by 5 hr of AI-10-49 treatment): 90%
- repression of MYC transcript levels (MYC [4]; 1 uM AI-10-49, 6 hrs, ME-1 cells): 10 fold
- MYC transcript and protein levels (MYC [4]): readily reduced
- MYC expression [5]: reduced
- MYC expression [6]: not affected
- E2F1 levels repressed (RNA-seq) (ME-1 cells [7]): 3 fold
- MYC levels repressed (RNA-seq) (ME-1 cells [7]): over 10 fold
- increase in RUNX1 binding to target regulatory elements (RUNX1 [8]; versus DMSO): 7 fold
- RUNX1 binding sites (RUNX1 [8]; DMSO 991): 6,652 sites
- RING1B occupancy at E3 (RING1B): 90%
- median latency of leukemia [9]: 39 days
- H3K27ac positive peaks (H3K27ac): 24,157 peaks
- MYC expression [10]: not affected
- LD50 range at 95% confidence intervals (ME-1 cells [11]): 0.398 to 0.537 mM
- MYC expression [12]: reduced
- effect on CBFβ function (CBFβ): minimal effect
- repression of MYC transcript levels [13]: not in non-inv(16) AML cell lines

Compound: Cc1sc2c(c1C)C(c1ccc(Cl)cc1)=N[C@@H](CC(=O)OC(C)(C)C)c1nnc(C)n1-2 [JQ1, reference compound]
- MYC transcript and protein levels (MYC [4]): readily reduced
- median latency of leukemia [9]: 32 days
